Data: paper PMC5630639 (Scientific Reports, 2017)

Experiments:
tubulin = assay: In vitro tubulin polymerization assay; type: biochemical; conditions: 5.6 mg/ml tubulin, absorbance 340 nm, 37 °C; read-out: tubulin polymerization inhibition IC50
Method: The in vitro tubulin polymerization inhibitory activity of 28 was then evaluated. Purified and unpolymerized tubulin was incubated with 28 at indicated concentrations, and tubulin polymerization was measured by the method originally described by D. Bone et al.[46].
An amount of 5.6 mg/ml tubulin was resuspended in PEM buffer [80 mM PIPES (pH 6.9), 1 mM EGTA, 0.5 mM MgCl2, 1 mM […], 10.2% (v/v) glycerol] and then was preincubated with compound 28 or vehicle DMSO on ice. The reaction was monitored by a spectrophotometer in absorbance at 340 nm at 37 °C every 5 min. The final concentrations of 28 were listed as follows: 0, 1, 2, and 4 µM.

[1] = system: three cancer cell lines (MGC-803, MCF-7, A549); assay: CCK-8 proliferation assay, three cancer cell lines together; type: cell-based; conditions: Homo sapiens, 48 h, read-out: IC50 values toward three cancer cell lines
Method: (§1) All synthesized β-lactam-azide derivatives were evaluated for their antiproliferative activity against three cancer cell lines (MGC-803, MCF-7, A549) using CCK-8 proliferation assay. The well-known anticancer drug CA-4P was used as a control[36],[37].
(§2) MGC-803 cell line was obtained from the Chinese Academy of Sciences (Shanghai, China). MCF-7 and A549 were from the National Cell Center, China. MGC-803 cells were cultured in DMEM culture medium (DMEM, Biological Industries, Kibbutz Beit Haemek, Israel). A549 and MCF-7 cells were cultured in 1640 medium (1640, Biological Industries, Kibbutz Beit Haemek, Israel). All medium were supplemented with 10% fetal bovine serum, 100 U/ml penicillin (North China Pharmaceutical group Co.), and 100 µg/ml streptomycin (North China Pharmaceutical group Co.). All cells were cultured at 37 °C in a humidified incubator containing 5% CO2.
Synthesized analogues used in the study were dissolved in 100% cell culture grade DMSO and the final concentration of DMSO as <0.1% for testing on cancer cell lines. […] The absorbance was measured using a microplate reader (BioTek Instrument, Inc. Vermont, USA) with a test wavelength of 450 nm. The absorbance levels were corrected against untreated control absorbance values. […]

MGC-803 cells [2] = assay: Transwell cell migration assay; type: cell-based, human; conditions: 24 h (control 29.4)
Method: In a transwell test, the average numbers of migrated cells in fields of control, 0.1 and 0.2 μM 28 treated MGC-803 cells were 29.4, 22.4 and 16.6, respectively (Fig. 6B and C). Based on the results from these tests, we next examined the protein expression of EMT-related makers such as E-cadherenin, N-cadherenin, ZO-1 and Vementin[55].
The test was performed in a transwell plate (Corning). MGC-803 cells were added to the upper chamber of a transwell plate. Control and different concentrations of 28 solutions were added to both upper and bottom chambers. Then the transwell plate was cultured at 37 °C in a humidified incubator containing 5% CO2 for 24 h. The next day, all contents in the upper chamber were removed and wiped by cotton buds. Alcohol was used to fix, and the crystal violet was used to stain the transwell for 30 min. After washed by PBS the cell chambers were observed and photos taken. The cell number of the migrated cells through the transwell was calculated by counting 5 visual fields of each group (P < 0.05)[55],[56].

MGC-803 cells [3] = assay: Annexin V-FITC/PI apoptosis analysis by flow cytometry; type: cell-based, human; conditions: 24 h
Method: We next evaluated whether 28 induces apoptosis in MGC-803 cells by flow cytometry analysis of propidium iodide (PI) and Annexin V stained cells. […] When MGC-803 cells were incubated with 28 at 0.1, 0.2, and 0.3 μM for 24 h, the percentages of early apoptotic cells were 12.4%, 40.5%, and 49.7%, respectively and those of late apoptotic cells 2.1%, 10.1%, and 9.4%, respectively (Fig. 4A). Bcl-2 family proteins were crucial components of mitochondrial stress-induced cellular apoptosis. Thus, the expression of apoptosis-related proteins was also determined.
An Annexin V-FITC/PI kit (KeyGEN BioTECH, Nanjing, China) was used to detect apoptosis. Cells were seeded in 6-well plates and treated with 0, 0.1, 0.2 and 0.3 µM of 28 for 24 h. Then MGC-803 cells were collected and suspended in binding buffer containing Annexin V-FITC (0.5 mg/mL) and PI (0.5 mg/mL) and incubated in dark for 20 min and analyzed by flow cytometry (Becton, Dickinson and Company, NJ). The apoptosis related proteins of western blot analysis were conducted according to our previously reported method[31],[32].

[4] = system: colchicine-binding site of β-tubulin; assay: EBI competition assay; type: cell-based, human; conditions: preincubation 0.25 and 5 μM, 2 h; EBI 100 μM
Method: Six-well plates were seeded with MGC-803 cells at 5 × 10^5 cells per well. […] After 2 h, the cells were harvested and cell extracts were prepared for Western blot analysis. 20 μg of proteins was subjected to gel electrophoresis using 10% polyacrylamide gels. The proteins were transferred onto PVDF membranes, then blocked by 5% nonfatmilk for 1 h, and subsequently incubated with anti-β-tubulin antibody for 16 h at 4 °C. Next, the membranes were washed extensively and immunoreactive proteins were finally detected by chemiluminescence.

[5] = system: interphase microtubules in MGC-803 cells; assay: Immunofluorescence staining of tubulin; type: cell-based, human; conditions: 24 h
Method: As the microtubule system plays a vital role in the maintenance of cell shape and basic cellular functions, an immunofluorescence staining assay was performed to study whether compound 28 could disrupt the microtubule dynamics in living cells.
Cell climbing slices were sterilized and placed on the bottom of a 24-well plate for 24 h before MGC-803 cells were incubated in DMSO, different concentrations of 28 or CA-4P solutions were added. The next day the cell climbing slices were fixed by 4% paraformaldehyde for 15 min after washed by PBS for 3 times. 0.5% Triton-X-100 was added and shaked for 20 min. 0.1% BSA was used to block for 30 min and then removed. The cell climbing slices were added α-tubulin antibody (1:100) and incubated overnight at 4 °C in humid box. On the third day the humid box was taken out and balanced at 37 °C for 30 min. The cell climbing slices were washed by PBST for 3 times for each of 3 minutes and coated with FITC antibody (1:500) in a dark place for 1 h at room temperature. DAPI was used to re-stained for 5 min and then removed. The cell climbing slices were sealing by an anti-fluorescence quenching agent and images collected by Laser scanning confocal microscope (Nikon, Japan).

MGC-803 cells [6] = assay: CCK-8 proliferation assay, MGC-803; type: cell-based, human; conditions: Homo sapiens, MGC-803; 48 h, CCK-8, mean ± SD
Method: as §1, §2
Synthesized analogues used in the study were dissolved in 100% cell culture grade DMSO and the final concentration of DMSO as <0.1% for testing on cancer cell lines. Cytotoxicity assays were performed on the human gastric carcinoma cell line MGC-803, the human mammary carcinoma cell line MCF-7, the human lung carcinoma cell line A549. Cells (3500–5000/well) were seeded into 96-well plates in 100 µL of culture medium. The cells were treated in triplicate with a gradient concentration of testing compounds and incubated at 37 °C, 5% CO2 for 48 h. For all cell lines, CCK-8 assay was performed to measure cytotoxic effects. The absorbance was measured using a microplate reader (BioTek Instrument, Inc. Vermont, USA) with a test wavelength of 450 nm. The absorbance levels were corrected against untreated control absorbance values. All experiments were performed in triplicate and SPSS17.0 was used for data analysis to obtain IC50 values.

IC50 (tubulin): 2260 nM
IC50 [1]: 106 to 507 nM
IC50 (MGC-803 cells [6]): 106 ± 1 nM
SMILES: COc1cc(N2C(=O)[C@H](c3cccs3)[C@H]2c2cccc(N=[N+]=[N-])c2)cc(OC)c1OC (relative stereo) [Compound 28, trans-4-(3-azidophenyl)-3-(thiophen-2-yl)-1-(3,4,5-trimethoxyphenyl)azetidin-2-one]
average number of migrated cells in fields (MGC-803 cells [2]; 0.1 μM): 22.4
average number of migrated cells in fields (MGC-803 cells [2]; 0.2 μM): 16.6
early apoptotic cells (MGC-803 cells [3]; 0.1 μM): 12.4%
late apoptotic cells (MGC-803 cells [3]; 0.1 μM): 2.1%
early apoptotic cells (MGC-803 cells [3]; 0.2 μM): 40.5%
late apoptotic cells (MGC-803 cells [3]; 0.2 μM): 10.1%
early apoptotic cells (MGC-803 cells [3]; 0.3 μM): 49.7%
late apoptotic cells (MGC-803 cells [3]; 0.3 μM): 9.4%
formation of the EBI: β-tubulin adduct [4]: dose-dependently prevented the formation of the EBI: β-tubulin adduct
depolymerization of interphase microtubules ([5]; 0.075 μM): moderately depolymerized
depolymerization of interphase microtubules ([5]; 0.3 μM): much stronger
